Test results from US5672715A, “Herbicidal substituted 3-aryl-pyrazoles” (Monsanto Company, priority 1995, dated 1997).
Where two headings read alike, the source gives them in different places.

Legend:
Type in all cases: in vivo
[1] = test system: Barnyardgrass; assay: pre-emergence herbicide test; conditions: Echinochloa crus-galli, pre-emergence, read-out: % plant inhibition
Method in brief: (§1)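 Herbicidal effect was assessed as percent inhibition about 14 days after sowing. A known amount of compound was added to the covering topsoil, and the pans were subirrigated in a greenhouse.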

[2] = test system: Rice; assay: pre-emergence herbicide test; conditions: Oryza sativa, read-out: % plant inhibition
Method in brief: as §1

[3] = test system: Morning Glory; assay: pre-emergence herbicide test; conditions: Ipomoea, pre-emergence, read-out: % plant inhibition
Method in brief: as §1

[4] = test system: Barnyardgrass; assay: post-emergence herbicide test; conditions: Echinochloa crus-galli, post-emergence, read-out: % plant inhibition
Method in brief: (§2)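 Sown pans kept on a greenhouse bench with irrigation or subirrigation until plants reached two to three weeks, then sprayed at 170.3 kPa (10 psig). Spray mix held about 0.4% by volume emulsifier; total volume 1870 L/Ha. Result expressed as percent inhibition.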

[5] = test system: Yellow Foxtail; assay: post-emergence herbicide test; conditions: Setaria, read-out: % plant inhibition
Method in brief: as §2

[6] = test system: Velvetleaf; assay: post-emergence herbicide test; conditions: Abutilon theophrasti, post-emergence, read-out: % plant inhibition
Method in brief: as §2

[7] = test system: Yellow Nutsedge; assay: post-emergence herbicide test; conditions: Cyperus, read-out: % plant inhibition
Method in brief: as §2

[8] = test system: Wheat; assay: post-emergence herbicide test; conditions: Triticum aestivum, post-emergence, read-out: % plant inhibition
Method in brief: as §2

[9] = test system: Soybean; assay: post-emergence herbicide test; conditions: Glycine max, post-emergence, read-out: % plant inhibition
Method in brief: as §2

[10] = test system: Morning Glory; assay: post-emergence herbicide test; conditions: Ipomoea, post-emergence, read-out: % plant inhibition
Method in brief: as §2

[11] = test system: Blackgrass; assay: post-emergence herbicide test; conditions: Alopecurus myosuroides, post-emergence, read-out: % plant inhibition; for inhibition at 7.95803 g/ha: 0.0071 lb/A; for inhibition at 40.0143 g/ha: 0.0357 lb/A; for inhibition at 200.072 g/ha: 0.1785 lb/A; for inhibition at 1000.92 g/ha: 0.893 lb/A
Method in brief: as §2

[12] = test system: Corn; assay: post-emergence herbicide test; conditions: Zea mays, post-emergence, read-out: % plant inhibition
Method in brief: as §2

[13] = test system: Cocklebur; assay: post-emergence herbicide test; conditions: Xanthium strumarium, post-emergence, read-out: % plant inhibition
Method in brief: as §2

[14] = test system: Bedstraw Catchweed; assay: post-emergence herbicide test; conditions: Galium aparine, post-emergence, read-out: % plant inhibition
Method in brief: as §2

[15] = test system: Common Chickweed; assay: post-emergence herbicide test; conditions: post-emergence, read-out: % plant inhibition
Method in brief: as §2

COc1cc(-c2nn(C)c(C(F)(F)F)c2C)c(F)cc1[N+](=O)[O-] [Compound 36]
inhibition at 7.95803 g/ha ([1]; 0.0071 lb/A): 0%
inhibition at 40.0143 g/ha ([1]; 0.0357 lb/A): 20%
inhibition at 200.072 g/ha ([1]; 0.1785 lb/A): 90%
inhibition at 1000.92 g/ha ([1]; 0.893 lb/A): 100%
inhibition at 7.95803 g/ha ([2]; 0.0071 lb/A): 0%
inhibition at 40.0143 g/ha ([2]; 0.0357 lb/A): 0%
inhibition at 200.072 g/ha ([2]; 0.1785 lb/A): 0%
inhibition at 1000.92 g/ha ([2]; 0.893 lb/A): 65%
inhibition at 7.95803 g/ha ([3]; 0.0071 lb/A): 0%
inhibition at 40.0143 g/ha ([3]; 0.0357 lb/A): 10%
inhibition at 200.072 g/ha ([3]; 0.1785 lb/A): 60%
inhibition at 1000.92 g/ha ([3]; 0.893 lb/A): 90%
inhibition at 7.95803 g/ha ([4]; 0.0071 lb/A): 0%
inhibition at 40.0143 g/ha ([4]; 0.0357 lb/A): 0%
inhibition at 200.072 g/ha ([4]; 0.1785 lb/A): 45%
inhibition at 1000.92 g/ha ([4]; 0.893 lb/A): 50%
inhibition at 7.95803 g/ha ([5]; 0.0071 lb/A): 0%
inhibition at 40.0143 g/ha ([5]; 0.0357 lb/A): 10%
inhibition at 200.072 g/ha ([5]; 0.1785 lb/A): 45%
inhibition at 1000.92 g/ha ([5]; 0.893 lb/A): 70%
inhibition at 7.95803 g/ha ([6]; 0.0071 lb/A): 65%
inhibition at 40.0143 g/ha ([6]; 0.0357 lb/A): 70%
inhibition at 200.072 g/ha ([6]; 0.1785 lb/A): 75%
inhibition at 1000.92 g/ha ([6]; 0.893 lb/A): 100%
inhibition at 7.95803 g/ha ([7]; 0.0071 lb/A): 0%
inhibition at 40.0143 g/ha ([7]; 0.0357 lb/A): 0%
inhibition at 200.072 g/ha ([7]; 0.1785 lb/A): 0%
inhibition at 1000.92 g/ha ([7]; 0.893 lb/A): 25%
inhibition at 7.95803 g/ha ([8]; 0.0071 lb/A): 10%
inhibition at 40.0143 g/ha ([8]; 0.0357 lb/A): 5%
inhibition at 200.072 g/ha ([8]; 0.1785 lb/A): 20%
inhibition at 1000.92 g/ha ([8]; 0.893 lb/A): 25%
inhibition at 7.95803 g/ha ([9]; 0.0071 lb/A): 15%
inhibition at 40.0143 g/ha ([9]; 0.0357 lb/A): 25%
inhibition at 200.072 g/ha ([9]; 0.1785 lb/A): 35%
inhibition at 1000.92 g/ha ([9]; 0.893 lb/A): 45%
inhibition at 7.95803 g/ha ([10]; 0.0071 lb/A): 20%
inhibition at 40.0143 g/ha ([10]; 0.0357 lb/A): 40%
inhibition at 200.072 g/ha ([10]; 0.1785 lb/A): 85%
inhibition at 1000.92 g/ha ([10]; 0.893 lb/A): 100%
inhibition at 7.95803 g/ha ([11]; Table 4a): 0%
inhibition at 7.95803 g/ha ([11]; Table 5a): 0%
inhibition at 40.0143 g/ha ([11]; Table 4a): 0%
inhibition at 40.0143 g/ha ([11]; Table 5a): 10%
inhibition at 200.072 g/ha ([11]; Table 4a): 0%
inhibition at 200.072 g/ha ([11]; Table 5a): 25%
inhibition at 1000.92 g/ha ([11]; Table 4a): 0%
inhibition at 1000.92 g/ha ([11]; Table 5a): 60%
inhibition at 7.95803 g/ha ([12]; 0.0071 lb/A): 0%
inhibition at 40.0143 g/ha ([12]; 0.0357 lb/A): 25%
inhibition at 200.072 g/ha ([12]; 0.1785 lb/A): 30%
inhibition at 1000.92 g/ha ([12]; 0.893 lb/A): 40%
inhibition at 7.95803 g/ha ([13]; 0.0071 lb/A): 75%
inhibition at 40.0143 g/ha ([13]; 0.0357 lb/A): 0%
inhibition at 200.072 g/ha ([13]; 0.1785 lb/A): 60%
inhibition at 1000.92 g/ha ([13]; 0.893 lb/A): 98%
inhibition at 7.95803 g/ha ([14]; 0.0071 lb/A): 0%
inhibition at 40.0143 g/ha ([14]; 0.0357 lb/A): 25%
inhibition at 200.072 g/ha ([14]; 0.1785 lb/A): 50%
inhibition at 1000.92 g/ha ([14]; 0.893 lb/A): 75%
inhibition at 7.95803 g/ha ([15]; 0.0071 lb/A): 85%
inhibition at 40.0143 g/ha ([15]; 0.0357 lb/A): 15%
inhibition at 200.072 g/ha ([15]; 0.1785 lb/A): 35%
inhibition at 1000.92 g/ha ([15]; 0.893 lb/A): 65%
